Measured values from ChEMBL document CHEMBL1139644, “Pharmacophore-based design, synthesis, biological evaluation, and 3D-QSAR studies of aryl-piperazines as alpha(1)-adrenoceptor antagonists” (Bioorg Med Chem Lett, 2005).

Target: T1, Adrenergic receptor alpha-1 (Rattus norvegicus, UniProt P15823+P23944+P43140)
T1 sequence (P15823 whole entry): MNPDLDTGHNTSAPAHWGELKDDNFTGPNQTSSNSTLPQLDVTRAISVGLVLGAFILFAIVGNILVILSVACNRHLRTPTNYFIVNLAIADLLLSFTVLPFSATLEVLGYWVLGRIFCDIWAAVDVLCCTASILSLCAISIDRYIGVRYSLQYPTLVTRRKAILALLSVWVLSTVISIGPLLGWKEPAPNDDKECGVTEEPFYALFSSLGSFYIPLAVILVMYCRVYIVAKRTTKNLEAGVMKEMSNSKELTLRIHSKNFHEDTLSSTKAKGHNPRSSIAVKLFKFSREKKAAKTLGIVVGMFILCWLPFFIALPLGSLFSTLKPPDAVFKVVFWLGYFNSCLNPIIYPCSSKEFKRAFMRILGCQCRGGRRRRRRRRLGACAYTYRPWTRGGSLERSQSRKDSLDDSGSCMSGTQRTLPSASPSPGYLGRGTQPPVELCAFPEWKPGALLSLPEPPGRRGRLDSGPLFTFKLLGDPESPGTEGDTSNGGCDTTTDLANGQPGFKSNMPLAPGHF
T1 sequence (P23944 whole entry): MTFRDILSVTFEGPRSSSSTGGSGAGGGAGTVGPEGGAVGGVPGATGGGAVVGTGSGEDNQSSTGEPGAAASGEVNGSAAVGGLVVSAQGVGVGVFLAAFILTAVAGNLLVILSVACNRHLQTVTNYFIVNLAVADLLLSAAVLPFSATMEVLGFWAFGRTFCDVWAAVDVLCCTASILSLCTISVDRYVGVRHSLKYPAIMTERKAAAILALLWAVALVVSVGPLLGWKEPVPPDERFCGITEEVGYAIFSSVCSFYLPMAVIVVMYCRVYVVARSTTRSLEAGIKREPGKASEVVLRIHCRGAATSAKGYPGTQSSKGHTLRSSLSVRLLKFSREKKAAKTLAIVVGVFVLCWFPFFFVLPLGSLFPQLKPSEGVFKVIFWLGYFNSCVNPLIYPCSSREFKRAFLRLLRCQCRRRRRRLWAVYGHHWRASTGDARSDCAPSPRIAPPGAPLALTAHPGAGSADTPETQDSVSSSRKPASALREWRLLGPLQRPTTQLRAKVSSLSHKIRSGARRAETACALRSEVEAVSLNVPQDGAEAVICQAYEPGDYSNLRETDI
T1 sequence (P43140 whole entry): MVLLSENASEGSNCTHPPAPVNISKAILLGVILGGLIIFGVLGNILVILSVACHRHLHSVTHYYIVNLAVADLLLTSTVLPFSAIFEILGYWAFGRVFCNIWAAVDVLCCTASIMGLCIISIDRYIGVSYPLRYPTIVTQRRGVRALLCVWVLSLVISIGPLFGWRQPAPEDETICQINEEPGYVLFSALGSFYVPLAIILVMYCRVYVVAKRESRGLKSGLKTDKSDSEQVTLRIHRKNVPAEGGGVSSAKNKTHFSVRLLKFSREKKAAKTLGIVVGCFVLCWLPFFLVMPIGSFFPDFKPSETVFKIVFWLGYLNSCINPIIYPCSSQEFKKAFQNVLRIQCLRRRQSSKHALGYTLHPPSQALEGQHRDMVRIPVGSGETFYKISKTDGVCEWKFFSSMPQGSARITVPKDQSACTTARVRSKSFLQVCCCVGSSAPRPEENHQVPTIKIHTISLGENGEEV
Assay: Antagonistic activity for Alpha-1 adrenergic receptor was measured as inhibition of phenylephrine-[…] contractions in isolated Sprague-Dawley rat anacoccygeal muscles
Format: functional

SMILES | pA2
COc1ccc(N2CCN(CCNC(=O)c3ccco3)CC2)cc1 | 7.85
COc1cccc(N2CCN(CCNC(=O)c3ccco3)CC2)c1 | 8.56
Cc1ccc(N2CCN(CCNC(=O)c3ccco3)CC2)cc1 | 6.47
Cc1ccc(N2CCN(CCNC(=O)c3cccnc3)CC2)cc1 | 6.53
COc1ccc(N2CCN(CCNC(=O)c3cc4ccccc4oc3=O)CC2)cc1 | 7.74
Cc1ccc(N2CCN(CCNC(=O)c3cc4ccccc4o3)CC2)cc1 | 6.92
Cc1ccc(N2CCN(CCNC(=O)c3ccco3)CC2)c(C)c1 | 7.72
COc1ccccc1N1CCN(CCNC(=O)c2cc3ccccc3oc2=O)CC1 | 7.71
Cc1ccc(N2CCN(CCNC(=O)c3cc4ccccc4o3)CC2)c(C)c1 | 7.36

The remaining lines, values ahead:

pA2 | SMILES
7.31 | COc1ccc(Cl)cc1N1CCN(CCNC(=O)c2cc3ccccc3oc2=O)CC1
5.94 | Cc1ccc(N2CCN(CCNC(=O)c3cccnc3)CC2)c(C)c1
5.63 | COc1ccc(Cl)cc1N1CCN(CCNC(=O)c2cc3ccccc3o2)CC1
8.56 | COc1ccc(Cl)cc1N1CCN(CCNC(=O)c2ccco2)CC1
5.56 | COc1ccc(Cl)cc1N1CCN(CCNC(=O)c2cccnc2)CC1
7.07 | Cc1ccc(N2CCN(CCNC(=O)c3ccncc3)CC2)c(C)c1
7.18 | COc1ccc(Cl)cc1N1CCN(CCNC(=O)c2ccncc2)CC1
7.87 | COc1ccccc1N1CCN(CCNC(=O)c2cccnc2)CC1
9.12 | COc1ccccc1N1CCN(CCNC(=O)c2ccco2)CC1
5.79 | COc1ccc(N2CCN(CCNC(=O)c3cccnc3)CC2)cc1
5.95 | COc1ccc(N2CCN(CCNC(=O)c3ccncc3)CC2)cc1
6.5 | Cc1ccc(N2CCN(CCNC(=O)c3ccncc3)CC2)cc1
